For 21 compounds, IC50 results are on record in patent publication US10899769B2, “Imidazopiperazinone inhibitors of transcription activating proteins” (Board of Regents, The University of Texas System, priority 2018, dated 2021).

Test [1] deals with GST-CBP(1081-1197) bromodomain (Homo sapiens (Human), UniProt Q92793). In words: CBP AlphaScreen Assay. To be noted: binding to biotin-H4(1-21) Ac-K5/8/12/16. As to the method: (§1) Specific binding of the CBP or BRD4 bromodomain to the acetylated peptide derived from the H4 histone substrate (tetra acetylated H4(1-21) Ac-K5/8/12/16) was measured in absence or presence of inhibitors. The GST tagged bromodomains of CBP (1081-1197) and BRD4 (49-170) were obtained from BPS Bioscience and binding to the biotinylated H4(1-21) Ac-K5/8/12/16 (AnaSpec. 64989) was assessed via AlphaScreen technology (Perkin Elmer).
Sequence of GST-CBP(1081-1197) bromodomain (Q92793 1081-1197): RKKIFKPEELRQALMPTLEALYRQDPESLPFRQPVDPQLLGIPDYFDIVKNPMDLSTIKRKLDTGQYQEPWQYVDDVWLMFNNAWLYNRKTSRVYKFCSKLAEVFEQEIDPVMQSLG
(§2) 5 nM GST-CBP(1081-1197) and 20 nM biotin-H4(1-21) Ac-K5/8/12/16 (AnaSpec. 64989) were incubated with varying concentrations of CBP inhibitors in 15 μL of buffer containing 50 mM HEPES 7.5, […], 1 mM TCEP, and 0.003% Tween-20. After 30 minutes incubation at room temperature, 15 μL of detection buffer (BPS Bio. 33006) containing 7 μg/mL of Glutathione AlphaLisa acceptor beads (Perkin Elmer AL109) and 14 μg/mL of Streptavidin donor beads (Perkin Elmer 676002) was then added to the previous mixture. The reaction was incubated for an additional 2 hours at room temperature, and the AlphaScreen signal was quantified using the Envision Multilabel plate reader. As negative control, GST-CBP(1081-1197) was incubated with the non-acetylated biotin-H4(1-21) peptide(AnaSpec. 62555) and in presence of 0.25% of final DMSO concentration.
(§3) the binding of 2.5 nM of BRD4(49-170) to 10 nM biotin-H4(1-21) Ac-K5/8/12/16 (AnaSpec. 64989) was assessed following the same procedure described for the CBP assay. The standard dose response curves were fitted by Genedata Screener software using the variable-slope model: Signal=Signalnegative control+(SignalDMSO control−Signalnegative control)/(1+(IC50/Dose)^Hill slope).
(§4) Only Signal and Dose in the equation were treated as know values.
Background: In Alpha technology, singlet oxygen from a donor bead excites a nearby acceptor bead.

In test [2] the target is BRD4(49-170) bromodomain (Homo sapiens (Human), UniProt O60885). Nature of the test: BRD4 AlphaScreen Assay. To be noted: binding to biotin-H4(1-21) Ac-K5/8/12/16. As for the experimental part:
as §1, §2, §3, §4

The IC50 is the concentration that gives 50% inhibition.

On to `Cc1nn(C)cc1-c1cc2ccc(F)c(-c3nc(C4CCOCC4)n4c3CN(C)C(=O)C4C)c2cn1` (single isomer, unassigned) [Example 91a, 1-(3-(1,3-dimethyl-1H-pyrazol-4-yl)-7-fluoroisoquinolin-8-yl)-5,7-dimethyl-3-(tetrahydro-2H-pyran-4-yl)-7,8-dihydroimidazo[1,5-a] pyrazin-6(5H)-one], for which the values for the IC50 in test [1] and in test [2] were 3610 nM and 25000 nM, respectively.
On to `Cc1nn(C)cc1-c1cc2ccc(F)c(-c3nc(C4CCOCC4)n4c3CN(C)C(=O)C4C)c2cn1` (single isomer, unassigned) [Example 91b, 1-(3-(1,3-dimethyl-1H-pyrazol-4-yl)-7-fluoroisoquinolin-8-yl)-5,7-dimethyl-3-(tetrahydro-2H-pyran-4-yl)-7,8-dihydroimidazo[1,5-a] pyrazin-6(5H)-one], for which the figures for the IC50 in test [1] and in test [2] were 3 nM and 287 nM, respectively.
With `CN1Cc2c(N3CCCc4cc(-c5cnn(C)c5)c(C(F)F)cc43)nc(C3CC3)n2CC1=O` [Example 1, 3-cyclopropyl-1-(7-(difluoromethyl)-6-(1-methyl-1H-pyrazol-4-yl)-3,4-dihydroquinolin-1(2H)-yl)-7-methyl-7,8-dihydroimidazo[1,5-a]pyrazin-6(5H)-one], the values for the IC50 in test [1] and in test [2] were 7 nM and 8810 nM, respectively.
On the same counts, the results for `CCN1Cc2c(N3CCCc4cc(-c5cnn(C)c5)c(C(F)F)cc43)nc(C3CC3)n2CC1=O` [Example 4, 3-Cyclopropyl-1-(7-(difluoromethyl)-6-(1-methyl-1H-pyrazol-4-yl)-3,4-dihydroquinolin-1(2H)-yl)-7-ethyl-7,8-dihydroimidazo[1,5-a]pyrazin-6(5H)-one] are 6 nM and 17600 nM.
On the same counts, the results for `C[C@@H]1CN(C)C(=O)c2c(-c3cccc4nc(-c5cnn(C)c5)c(C(F)F)cc34)nc(C3CCOCC3)n21` [Example 5a, (R)-1-(3-(Difluoromethyl)-2-(1-methyl-1H-pyrazol-4-yl)quinolin-5-yl)-5,7-dimethyl-3-(tetrahydro-2H-pyran-4-yl)-7,8-dihydroimidazo[1,5-a]pyrazin-(5H)-one] are 4 nM and 353 nM.
On the same counts, the results for `C[C@H]1C(=O)N(C)Cc2c(-c3cccc4nc(-c5cnn(C)c5)c(C(F)F)cc34)nc(C3CCOCC3)n21` [Example 5b, (S)-1-(3-(difluoromethyl)-2-(1-methyl-1H-pyrazol-4-yl)quinolin-5-yl)-5,7-dimethyl-3-(tetrahydro-2H-pyran-4-yl)-7,8-dihydroimidazo[1,5-a]pyrazin-6(5H)-one] are 2670 nM and 25000 nM.
On to `Cn1cc(-c2cc3cccc(-c4nc(C5CC5)n5c4CN(CCO)C(=O)C5)c3cn2)cn1` [Example 6, 3-Cyclopropyl-7-(2-hydroxyethyl)-1-(3-(1-methyl-1H-pyrazol-4-yl)isoquinolin-8-yl)-7,8-dihydroimidazo[1,5-a]pyrazin-6(5H)-one], for which the IC50 in test [1] turned out to be 2250 nM; in test [2] it was 25000 nM.
For `Cn1cc(-c2cc3cccc(-c4nc(C5CC5)n5c4CN(CCF)C(=O)C5)c3cn2)cn1` [Example 7, 3-Cyclopropyl-7-(2-fluoroethyl)-1-(3-(1-methyl-1H-pyrazol-4-yl)isoquinolin-8-yl)-7,8-dihydroimidazo[1,5-a]pyrazin-6(5H)-one] the same measures were 19 nM and 4970 nM.
Turning to `CC1C(=O)N(C)Cc2c(-c3cccc4nc(C5=CCOCC5)c(C(F)F)cc34)nc(C3CC3)n21` (stereo not drawn) [Example 9, 3-Cyclopropyl-1-(3-(difluoromethyl)-2-(3,6-dihydro-2H-pyran-4-yl)quinolin-5-yl)-5,7-dimethyl-7,8-dihydroimidazo[1,5-a]pyrazin-6(5H)-one], the IC50 in test [1] worked out at 3 nM; in test [2], 366 nM.
For `CC1C(=O)N(C)Cc2c(-c3cccc4nc(C5CCOCC5)c(C(F)F)cc34)nc(C3CC3)n21` (stereo not drawn) [Example 10, 3-Cyclopropyl-1-(3-(difluoromethyl)-2-(tetrahydro-2H-pyran-4-yl)quinolin-5-yl)-5,7-dimethyl-7,8-dihydroimidazo[1,5-a]pyrazin-6(5H)-one] the same measures were 2 nM and 51 nM.
On the same counts, the results for `Cc1cn(-c2nc3cccc(-c4nc(C5CC5)n5c4CN(C)C(=O)C5C)c3cc2C(F)F)cn1` (stereo not drawn) [Example 11, 3-cyclopropyl-1-(3-(difluoromethyl)-2-(4-methyl-1H-imidazol-1-yl)quinolin-5-yl)-5,7-dimethyl-7,8-dihydroimidazo[1,5-a]pyrazin-6(5H)-one] are 4 nM and 268 nM.
For `Cc1cn(-c2nc3cccc(-c4nc(C5CC5)n5c4CN(C)C(=O)C5C)c3cc2C(F)F)nn1` (stereo not drawn) [Example 12, 3-cyclopropyl-1-(3-(difluoromethyl)-2-(4-methyl-1H-1,2,3-triazol-1-yl)quinolin-5-yl)-5,7-dimethyl-7,8-dihydroimidazo[1,5-a]pyrazin-6(5H)-one] the same measures were 3 nM and 130 nM.
Regarding `Cc1ncc(-c2cc3cccc(-c4nc(C5CC5)n5c4CN(C)C(=O)C5C)c3cn2)s1` (stereo not drawn) [Example 13, 3-Cyclopropyl-5,7-dimethyl-1-(3-(2-methylthiazol-5-yl)isoquinolin-8-yl)-7,8-dihydroimidazo[1,5-a]pyrazin-6(5H)-one], the IC50 in test [1] worked out at 2 nM; in test [2], 187 nM.
For `Cc1cnn(-c2cc3cccc(-c4nc(C5CC5)n5c4CN(C)C(=O)C5C)c3cn2)c1` (stereo not drawn) [Example 14, 3-Cyclopropyl-5,7-dimethyl-1-(3-(4-methyl-1H-pyrazol-1-yl)isoquinolin-8-yl)-7,8-dihydroimidazo[1,5-a]pyrazin-6(5H)-one] the same measures were 3 nM and 440 nM.
For `CC1C(=O)N(C)Cc2c(-c3cccc4cc(-c5nn[nH]n5)ncc34)nc(C3CC3)n21` (stereo not drawn) [Example 17, 1-(3-(2H-Tetrazol-5-yl)isoquinolin-8-yl)-3-cyclopropyl-5,7-dimethyl-7,8-dihydroimidazo[1,5-a]pyrazin-6(5H)-one] the same measures were 2 nM and 3030 nM.
Turning to `CC1C(=O)N(C)Cc2c(-c3cccc4nc(-c5cnn(C)c5)c(C(F)F)cc34)nc(C3CNC3)n21` (stereo not drawn) [Example 18, 3-(Azetidin-3-yl)-1-(3-(difluoromethyl)-2-(1-methyl-1H-pyrazol-4-yl)quinolin-5-yl)-5,7-dimethyl-7,8-dihydroimidazo[1,5-a]pyrazin-6(5H)-one], the IC50 came out at 50 nM in test [1] and 17500 nM in test [2].
In the case of `CC(=O)N1CC(c2nc(-c3cccc4nc(-c5cnn(C)c5)c(C(F)F)cc34)c3n2C(C)C(=O)N(C)C3)C1` (stereo not drawn) [Example 19, 3-(1-Acetylazetidin-3-yl)-1-(3-(difluoromethyl)-2-(1-methyl-1H-pyrazol-4-yl)quinolin-5-yl)-5,7-dimethyl-7,8-dihydroimidazo[1,5-a]pyrazin-6(5H)-one], the figures for the IC50 in test [1] and in test [2] were 41 nM and 5900 nM, respectively.
In the case of `CC1C(=O)N(C)Cc2c(-c3cccc4nc(-c5cnn(C)c5)c(C(F)F)cc34)nc(C3CN(S(C)(=O)=O)C3)n21` (stereo not drawn) [Example 20, 1-(3-(Difluoromethyl)-2-(1-methyl-1H-pyrazol-4-yl)quinolin-5-yl)-5,7-dimethyl-3-(1-(methylsulfonyl)azetidin-3-yl)-7,8-dihydroimidazo[1,5-a]pyrazin-6(5H)-one], the results for the IC50 in test [1] and in test [2] were 37 nM and 8570 nM, respectively.
For `CC1C(=O)N(C)Cc2c(-c3cccc4nc(-c5cnn(C)c5)c(C(F)F)cc34)nc(C3CN(CC(F)(F)F)C3)n21` (stereo not drawn) [Example 21, 1-(3-(Difluoromethyl)-2-(1-methyl-1H-pyrazol-4-yl)quinolin-5-yl)-5,7-dimethyl-3-(1-(2,2,2-trifluoroethyl)azetidin-3-yl)-7,8-dihydroimidazo[1,5-a]pyrazin-6(5H)-one] the same measures were 13 nM and 6160 nM.
For `CC1C(=O)N(C)Cc2c(-c3cccc4nc(-c5cnn(C)c5)c(C(F)F)cc34)nc(C3CN(CC(F)F)C3)n21` (stereo not drawn) [Example 22, 3-(1-(2,2-Difluoroethyl)azetidin-3-yl)-1-(3-(difluoromethyl)-2-(1-methyl-1H-pyrazol-4-yl)quinolin-5-yl)-5,7-dimethyl-7,8-dihydroimidazo[1,5-a]pyrazin-6(5H)-one] the same measures were 11 nM and 4340 nM.
Consider `COCCN1CC(c2nc(-c3cccc4nc(-c5cnn(C)c5)c(C(F)F)cc34)c3n2C(C)C(=O)N(C)C3)C1` (stereo not drawn) [Example 23, 1-(3-(Difluoromethyl)-2-(1-methyl-1H-pyrazol-4-yl)quinolin-5-yl)-3-(1-(2-methoxyethyl)azetidin-3-yl)-5,7-dimethyl-7,8-dihydroimidazo[1,5-a]pyrazin-6(5H)-one], for which the results for the IC50 in test [1] and in test [2] were 94 nM and 24600 nM, respectively.
